According to patent US7446125B2, “Derivatives of nitroproline compounds, processes of manufacture and uses in the treatment of integrin mediated disorders” (Universidad del Pais Vasco, priority 2005, dated 2008):

How the values were obtained:
VLA-4 [1] = target: T1, VLA-4 (Mus musculus, UniProt P09055+Q00651); assay: B16M (MB16) melanoma cell adhesion to primary cultured hepatic sinusoidal endothelial (HSE) cells; format: cell-based, murine; details: B16M cells preincubated with compound, 50 μg/1×10^6 MB16 cells; TNF-alpha-treated HSE or H2O2-treated B16M cells; FIG. 6
T1 construct: The tumor used is the B16F10 subline of MB16, the VLA-4 expression of which is constitutive; endogenous in cells; host or cells: B16F10 (MB16/B16M) murine melanoma cells; VCAM-1 on primary mouse HSE cells
Experimental: The tumor used is the B16F10 subline of MB16, the VLA-4 expression of which is constitutive.
The MB16 tumor cells (subline B16F10) are cultured in incubator at 37° C., with 5% CO2 atmosphere, in DMEM medium (Dulbecco's modified Eagle's medium), adjusted to pH 7.4 and supplemented with penicillin (100 U/ml), streptomycin (100 μg/ml) and 5% fetal bovine serum. The cells are maintained and subcultured according to a previously-described method (Vidal-Vanaclocha et al. Cancer Research, 1994, 54, 2667).
The hepatic sinusoidal cells are isolated from C57BU6J mice (males, age 6-8 weeks) supplied by IFFA Credo (L'Arbreole, France). For their purification and identification, the previously-described protocol is employed (Vidal-Vanaclocha et al. Hepatology, 1993, 18, 328-339). The primary HSE cell cultures are obtained by seeding the cells on a Type I collagen substrate (Sigma Chemicals Co, St Louis, Mo.) in the presence of DMEM, supplementing with penicillin (100 U/ml), streptomycin (100 μg/ml) and 10% fetal bovine serum, at 37° C. in 5% CO2 atmosphere.
The endothelial cells are isolated 24 hours prior to the adhesion test and are seeded on 24-well plate, maintaining them a minimum of 4 hours in free serum medium before incubating them with DMEM in the presence or not of 10 ng/ml TNF-α for 6 hours. The B16 cells are marked with 40 μg/ml of the BCECF-AM fluorescent probe (carboxyfluorescein, 2′,7′-bis-(2-carboxy-etyl)-5-(6)carboxyfluorescein aminoxymethyl ester), supplied by Molecular Probes Inc. (Oregon, USA). Afterward, a washing with DMEM medium without serum is performed to remove the excess flurorchromium, and the compounds of general formula I are incubated at 37° C. for 15 minutes at the concentration of 50 μg/1×10^6 MB16 cells. This is followed by two washings, the number of visible cells being calculated by means of the trypan blue dye exclusion test, and they are resuspended to a concentration of 2×10^5 cells/ml. One (1) ml of the MB16 cell suspension is added to each well on the primary HSE cell culture plate, and the co-cultures are incubated at 37° C. for 8 minutes. The percentage of cellular adhesion is calculated by means of a previously-described fluorescence measurement system (Vidal-Vanaclocha et al. Cancer Research, 1994, 54, 2667).
Next, the potential VLA-4 antagonism of compounds 11 was tested through a previously established model on VLA-4NCAM-1-interaction-dependent B16M cell adhesion to primary cultured hepatic sinusoidal endothelial (HSE) cells in vitro.

B16M cells [2] = assay: Hepatic metastasis of intrasplenically injected, compound-pretreated B16M cells; format: in vivo, C57BU6J mice; details: mice intrasplenically injected with pretreated B16M cells relative to untreated cells; P<0.01; FIG. 7
Experimental: A description is provided in following of the effect of the le compound on the metastatic capacity of MB16 in in-vivo tests. For this purpose, the MB16 cells treated with le are inoculated intrasplenically in C57BU6J mice (3×10^5 viable cells per animal, resuspended in endotoxin-free sterile saline solution), and the microvascular retention within the first 18 hours and their ability to develop metastasis on day 12 following the tumor injection is determined.
(§1) B16M cells were cultured for 24 hours in the presence 50 μg/ml of compound 11d, or […] anti-murine VLA-4 antibody. Cultured cells were fixed and processed for the immunohistochemical detection of Ki-67 antigen expression. Next, a computed-aid microscopic image analysis system was used to discriminate stained cells (brown nuclei) and calculate the average number of Ki-67 antigen-expressing cells per 1×10^4 cells. The results are the mean±SD of 6 independent fields, from 3 different experiments (n=18).

[3] = test system: VEGF production by soluble VCAM-1-stimulated B16M cells; assay: VEGF production by soluble VCAM-1-treated B16M cells in vitro; format: cell-based, murine; details: soluble VCAM-1-stimulated cells; FIG. 4
Solubility in water = format: physicochemical; details: compared with 11f
VLA-4 [4] = target: T1, VLA-4; assay: B16M (MB16) cell adhesion to immobilized recombinant human VCAM-1; format: cell-based, murine; details: IL-1b (interleukin-1b)-treated melanoma cells; FIG. 3
B16M cells [5] = assay: Cell viability, cytotoxicity, intracellular oxidative metabolism and proliferation rate of treated melanoma cells; format: cell-based, murine
Experimental: as §1

T1 sequence (Q00651 41-1039): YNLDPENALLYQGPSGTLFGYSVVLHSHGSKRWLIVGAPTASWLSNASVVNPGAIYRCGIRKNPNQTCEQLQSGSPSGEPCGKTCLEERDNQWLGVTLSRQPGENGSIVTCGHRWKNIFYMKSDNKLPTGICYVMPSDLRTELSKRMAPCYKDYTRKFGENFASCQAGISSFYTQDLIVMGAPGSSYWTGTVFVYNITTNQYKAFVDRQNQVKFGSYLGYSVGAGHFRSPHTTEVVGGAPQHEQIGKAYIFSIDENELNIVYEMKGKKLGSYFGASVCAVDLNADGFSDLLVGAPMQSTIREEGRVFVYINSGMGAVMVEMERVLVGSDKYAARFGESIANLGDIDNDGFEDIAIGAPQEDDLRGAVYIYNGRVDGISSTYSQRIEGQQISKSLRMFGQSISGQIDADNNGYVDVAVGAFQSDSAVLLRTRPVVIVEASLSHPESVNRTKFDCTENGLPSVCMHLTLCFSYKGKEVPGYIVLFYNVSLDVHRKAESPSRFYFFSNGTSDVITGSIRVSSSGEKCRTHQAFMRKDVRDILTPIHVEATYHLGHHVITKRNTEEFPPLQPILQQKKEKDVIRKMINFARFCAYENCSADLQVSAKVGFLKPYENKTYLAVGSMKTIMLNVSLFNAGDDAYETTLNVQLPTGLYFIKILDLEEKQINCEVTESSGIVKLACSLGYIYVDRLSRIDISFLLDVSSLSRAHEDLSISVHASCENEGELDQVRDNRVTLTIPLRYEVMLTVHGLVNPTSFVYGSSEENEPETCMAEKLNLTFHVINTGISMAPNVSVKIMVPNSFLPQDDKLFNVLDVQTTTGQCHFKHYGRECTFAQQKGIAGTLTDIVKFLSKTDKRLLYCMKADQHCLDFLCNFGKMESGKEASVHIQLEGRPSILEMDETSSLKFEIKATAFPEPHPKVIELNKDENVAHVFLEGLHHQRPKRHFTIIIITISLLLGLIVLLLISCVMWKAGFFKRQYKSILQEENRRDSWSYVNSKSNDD
T1 sequence (P09055 21-798): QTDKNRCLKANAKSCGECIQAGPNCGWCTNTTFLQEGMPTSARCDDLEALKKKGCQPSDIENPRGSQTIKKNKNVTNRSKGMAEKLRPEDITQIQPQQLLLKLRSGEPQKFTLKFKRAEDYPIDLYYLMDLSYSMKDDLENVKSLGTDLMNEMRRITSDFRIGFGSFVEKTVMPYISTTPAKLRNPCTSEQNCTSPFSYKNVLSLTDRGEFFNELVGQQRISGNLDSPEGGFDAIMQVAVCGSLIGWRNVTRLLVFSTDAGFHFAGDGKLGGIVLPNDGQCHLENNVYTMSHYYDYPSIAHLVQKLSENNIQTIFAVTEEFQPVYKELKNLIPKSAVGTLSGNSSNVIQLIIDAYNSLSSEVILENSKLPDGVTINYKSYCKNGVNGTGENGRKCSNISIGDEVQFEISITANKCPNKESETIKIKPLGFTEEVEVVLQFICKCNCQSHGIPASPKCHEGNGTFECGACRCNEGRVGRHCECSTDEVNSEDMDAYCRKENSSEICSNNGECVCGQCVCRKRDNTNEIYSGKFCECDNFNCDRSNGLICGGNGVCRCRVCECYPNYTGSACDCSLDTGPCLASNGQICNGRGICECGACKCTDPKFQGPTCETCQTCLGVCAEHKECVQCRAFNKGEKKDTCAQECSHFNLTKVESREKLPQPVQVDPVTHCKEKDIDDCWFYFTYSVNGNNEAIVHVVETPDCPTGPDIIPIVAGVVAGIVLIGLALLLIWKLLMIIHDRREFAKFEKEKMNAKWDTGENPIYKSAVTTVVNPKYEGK

Q: What does the source list for `CC(C)[C@H](OCc1ccccc1)[C@H]1[C@H]([N+](=O)[O-])[C@H](C(C)(C)C)N[C@@H]1C(=O)NCC(=O)O` [Compound 11b, 2-[(2S,3R,4S,5S)-5-tert-Butyl-3-[(S)-1-(benzyloxy)-2-methylpropyl]-4-nitropyrrolidine-2-carboxamido]acetic acid]?
A: melting point: 119 to 120 °C; antiadhesive activity (B16M cell adhesion to HSE cells) (VLA-4 [1]): did not show any significant antiadhesive activity

Q: With `CC[C@H](C)[C@H](OCc1ccccc1)[C@H]1[C@H]([N+](=O)[O-])[C@H](C2CC2)N[C@@H]1C(=O)NCC(=O)O` [Compound 11h, 2-[(2S,3R,4S,5S)-3-[(1S,2S)-1-(benzyloxy)-2-methylbutyl]-5-cyclopropyl-4-nitropyrrol-idine-2-carboxamido]acetic acid] as the molecule, how does the “antiadhesive activity (B16M cell adhesion to HSE cells)” value (shortened to “antiadhesive activity”) (VLA-4 [1]) read?
A: did not show any significant antiadhesive activity

Q: For `CC(C)[C@H](OCc1c(F)cccc1F)[C@H]1[C@H]([N+](=O)[O-])[C@H](c2ccccc2)N[C@@H]1C(=O)NCC(=O)O` [Compound 11e, 2-[(2S,3R,4S,5S)-3-[(S)-1-(2,6-Difluorobenzyloxy)-2-methylpropyl]-4-nitro-5-phenyl-pyrrolidine-2-carboxamido]acetic acid], which “antiadhesive activity” value (VLA-4 [1]) is on record?
A: almost inactive

Q: With `CC[C@H](C)[C@H](OCc1ccccc1)[C@H]1[C@H]([N+](=O)[O-])[C@H](c2ccccc2)N[C@@H]1C(=O)NCC(=O)O` [Compound 11d, 2-[(2S,3R,4S,5S)-3-[(1S,2S)-1-(Benzyloxy)-2-methylbutyl]-4-nitro-5-phenyl-pyrrolidine-2-carboxamido]acetic acid] as the molecule, how does the “decrease of metastasis density” value (B16M cells [2]) read?
A: 60%

Q: What about the “decrease of metastasis volume” value (B16M cells [2]) of the same molecule?
A: 95%

Q: What about the “VEGF production induced by soluble VCAM-1” value [3] of the same molecule?
A: prevented

Q: And the solubility in water (Solubility in water)?
A: higher solubility in water

Q: And the “adhesion of melanoma cells to immobilized VCAM-1” value (VLA-4 [4])?
A: completely abrogated

Q: And the “cell viability and cytotoxicity, intracellular oxidative metabolism, cell-proliferation rates” value (B16M cells [5])?
A: excluded that antimetastatic effects of 11d compound may have been caused by indirect effects on cell functions

Q: And the “antiadhesive activity” value (VLA-4 [1])?
A: comparable antiadhesive activity to monoclonal antibodies against murine VLA-4

Q: Which “antiadhesive activity” value (VLA-4 [1]) does the source give for `CC[C@H](C)[C@H](OCc1ccccc1)[C@H]1[C@H]([N+](=O)[O-])[C@H](C2CCCCC2)N[C@@H]1C(=O)NCC(=O)O` [Compound 11f, 2-[(2S,3R,4S,5S)-3-[(1S,2S)-1-(benzyloxy)-2-methylbutyl]-5-cyclohexyl-4-nitropyrrol-idine-2-carboxamido]acetic acid] here?
A: best activity in vitro

Q: For `CC[C@H](C)[C@H](OCc1ccccc1)[C@@H]1[C@H]([N+](=O)[O-])[C@H](c2ccccc2)N[C@]1(C)C(=O)NCC(=O)O` [Compound 11j, 2-[(2S,3R,4S,5S)-3-[(1S,2S)-1-(Benzyloxy)-2-methylbutyl]-2-methyl-4-nitro-5-phenyl-pyrrolidine-2-carboxamido]acetic acid], which “antiadhesive activity” value (VLA-4 [1]) is on record?
A: did not result in a significant loss of activity
